Data: the supplement of paper PMC11208160

Assay: recombinant UMI read abundance after kanamycin selection (control-corrected) (log10(CPM+1)); higher = more efficient recombination; extreme values may be limits of the assay; sequences stand for … in AGTGCAGAGAAAATCGGCCAGTTTTCTCTGCCTGCAGTCCGCATGCCGTGGGACCCCTTGGGTTCTAACCTGTTGCCTAGATTTATGCAGCGGACTGCCTTTCTCCCAAAGTGATAAACCGG…AGGTTGGTTTCACT; site = the 11-nt donor
Outline: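 For the IS621 bridge recombinase, a pooled Escherichia coli screen tested donor and donor-binding-loop pairs. Cells received the pair library together with a target plasmid encoding a fixed target and T7-inducible recombinase, then went onto IPTG (0.07 mM) plus kanamycin or unselected plates in duplicate. After PCR across the donor–target junction and sequencing, recombinant UMI counts were normalized to CPM, averaged, and scaled by control-derived factors. Each value is given as log10(CPM+1).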
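Also: IS621 bridge recombinase in Escherichia coli cells against a fixed T5 target plasmid.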

CGATGATCATGGACCGGTTTTCCCGGTAATCCGTATTTGAT (site CGATGATCTAT)
recombinant UMI read abundance (log10): 2.44

CGATGCACATGGACCGGTTTTCCCGGTAATCCGTATTTGAT (site CGATGCACTAT)
recombinant UMI read abundance (log10): 2.34

CGATTACCATGGACCGGTTTTCCCGGTAATCCGTATTTGAT (site CGATTACCTAT)
recombinant UMI read abundance (log10): 0

CGATTGGCATGGACCGGTTTTCCCGGTAATCCGTATTTGCT (site CGATTGGCTAG)
recombinant UMI read abundance (log10): 0.768

CGATTGGCATGGACCGGTTTTCCCGGTAATCCGTATTTGCT (site CGCTTGGCTAG)
recombinant UMI read abundance (log10): 0

CGATTGGCATGGACCGGTTTTCCCGGTAATCCGTATTTGCT (site CGGTTGGCTAG)
recombinant UMI read abundance (log10): 0

CGATTGGCATGGACCGGTTTTCCCGGTAATCCGTATTTGCT (site CGTTTGGCTAG)
recombinant UMI read abundance (log10): 0

CGATTTACATGGACCGGTTTTCCCGGTAATCCGTATTTGGC (site CGATTTACTGC)
recombinant UMI read abundance (log10): 0

CGATTTCCATGGACCGGTTTTCCCGGTAATCCGTATTTGTT (site CGATTTCCTAA)
recombinant UMI read abundance (log10): 0.757

CGCAACTCATGGACCGGTTTTCCCGGTAATCCGTATTTGAC (site CGCAACTCTGT)
recombinant UMI read abundance (log10): 2.04

CGCAAGACATGGACCGGTTTTCCCGGTAATCCGTATTTGGT (site CGCAAGACTAC)
recombinant UMI read abundance (log10): 1.19

CGCAATCCATGGACCGGTTTTCCCGGTAATCCGTATTTGAA (site AGCAATCCTTT)
recombinant UMI read abundance (log10): 0.0753

CGCAATCCATGGACCGGTTTTCCCGGTAATCCGTATTTGAA (site CGCAATCCTTT)
recombinant UMI read abundance (log10): 1.27

CGCAATCCATGGACCGGTTTTCCCGGTAATCCGTATTTGAA (site GGCAATCCTTT)
recombinant UMI read abundance (log10): 0.00324

CGCAATCCATGGACCGGTTTTCCCGGTAATCCGTATTTGAA (site TGCAATCCTTT)
recombinant UMI read abundance (log10): 0.00288

CGCACCTCATGGACCGGTTTTCCCGGTAATCCGTATTTGGG (site CGCACCTCTCC)
recombinant UMI read abundance (log10): 0.526

CGCAGACCATGGACCGGTTTTCCCGGTAATCCGTATTTGGG (site CGCAGACCTCC)
recombinant UMI read abundance (log10): 0.0135

CGCAGTACATGGACCGGTTTTCCCGGTAATCCGTATTTGCT (site CGCAGTACTAG)
recombinant UMI read abundance (log10): 1.44

CGCAGTACATGGACCGGTTTTCCCGGTAATCCGTATTTGCT (site CGCCGTACTAG)
recombinant UMI read abundance (log10): 0

CGCAGTACATGGACCGGTTTTCCCGGTAATCCGTATTTGCT (site CGCGGTACTAG)
recombinant UMI read abundance (log10): 0.749

CGCAGTACATGGACCGGTTTTCCCGGTAATCCGTATTTGCT (site CGCTGTACTAG)
recombinant UMI read abundance (log10): 0

CGCAGTCCATGGACCGGTTTTCCCGGTAATCCGTATTTGAG (site CGCAGTCCTCT)
recombinant UMI read abundance (log10): 0.438

CGCATATCATGGACCGGTTTTCCCGGTAATCCGTATTTGTC (site CACATATCTGA)
recombinant UMI read abundance (log10): 0

CGCATATCATGGACCGGTTTTCCCGGTAATCCGTATTTGTC (site CCCATATCTGA)
recombinant UMI read abundance (log10): 0

CGCATATCATGGACCGGTTTTCCCGGTAATCCGTATTTGTC (site CGCATATCTGA)
recombinant UMI read abundance (log10): 1.86

CGCATATCATGGACCGGTTTTCCCGGTAATCCGTATTTGTC (site CTCATATCTGA)
recombinant UMI read abundance (log10): 0.436

CGCATGTCATGGACCGGTTTTCCCGGTAATCCGTATTTGTT (site CGCATGTCTAA)
recombinant UMI read abundance (log10): 2.52

CGCCCATCATGGACCGGTTTTCCCGGTAATCCGTATTTGCT (site CGATCATCTAG)
recombinant UMI read abundance (log10): 0.57

CGCCCATCATGGACCGGTTTTCCCGGTAATCCGTATTTGCT (site CGCCCATCTAG)
recombinant UMI read abundance (log10): 2.54

CGCCCTACATGGACCGGTTTTCCCGGTAATCCGTATTTGCT (site CGCCATACTAG)
recombinant UMI read abundance (log10): 0

CGCCCTACATGGACCGGTTTTCCCGGTAATCCGTATTTGCT (site CGCCCTACTAG)
recombinant UMI read abundance (log10): 1.28

CGCCCTACATGGACCGGTTTTCCCGGTAATCCGTATTTGCT (site CGCCGTACTAG)
recombinant UMI read abundance (log10): 0.0214

CGCCCTACATGGACCGGTTTTCCCGGTAATCCGTATTTGCT (site CGCCTTACTAG)
recombinant UMI read abundance (log10): 0

CGCCCTCCATGGACCGGTTTTCCCGGTAATCCGTATTTGAT (site CGCCCTCCTAT)
recombinant UMI read abundance (log10): 0.51

CGCCGTACATGGACCGGTTTTCCCGGTAATCCGTATTTGCG (site CGCCGTACTAG)
recombinant UMI read abundance (log10): 0

CGCCGTACATGGACCGGTTTTCCCGGTAATCCGTATTTGCG (site CGCCGTACTCG)
recombinant UMI read abundance (log10): 1.13

CGCCGTACATGGACCGGTTTTCCCGGTAATCCGTATTTGCG (site CGCCGTACTGG)
recombinant UMI read abundance (log10): 0

CGCCGTACATGGACCGGTTTTCCCGGTAATCCGTATTTGCG (site CGCCGTACTTG)
recombinant UMI read abundance (log10): 0.00693

CGCCTAGCATGGACCGGTTTTCCCGGTAATCCGTATTTGTT (site AGCCTAGCTAA)
recombinant UMI read abundance (log10): 0.00606

CGCCTAGCATGGACCGGTTTTCCCGGTAATCCGTATTTGTT (site CGCCTAGCTAA)
recombinant UMI read abundance (log10): 0

CGCCTAGCATGGACCGGTTTTCCCGGTAATCCGTATTTGTT (site GGCCTAGCTAA)
recombinant UMI read abundance (log10): 0.00975

CGCCTAGCATGGACCGGTTTTCCCGGTAATCCGTATTTGTT (site TGCCTAGCTAA)
recombinant UMI read abundance (log10): 0.00877

CGCGATTCATGGACCGGTTTTCCCGGTAATCCGTATTTGGA (site CGCGATTCTTC)
recombinant UMI read abundance (log10): 2.31

CGCGCGCCATGGACCGGTTTTCCCGGTAATCCGTATTTGTT (site CGCGCGCCTAA)
recombinant UMI read abundance (log10): 0.0124

CGCGGCCCATGGACCGGTTTTCCCGGTAATCCGTATTTGTT (site CACGGCCCTAA)
recombinant UMI read abundance (log10): 0.167

CGCGGCCCATGGACCGGTTTTCCCGGTAATCCGTATTTGTT (site CCCGGCCCTAA)
recombinant UMI read abundance (log10): 0.00728

CGCGGCCCATGGACCGGTTTTCCCGGTAATCCGTATTTGTT (site CGCGGCCCTAA)
recombinant UMI read abundance (log10): 0.202

CGCGGCCCATGGACCGGTTTTCCCGGTAATCCGTATTTGTT (site CTCGGCCCTAA)
recombinant UMI read abundance (log10): 0.00821

CGCGGCTCATGGACCGGTTTTCCCGGTAATCCGTATTTGGC (site CGCGGCTCTGC)
recombinant UMI read abundance (log10): 2.33

CGCGGTCCATGGACCGGTTTTCCCGGTAATCCGTATTTGCA (site CACGGTCCTTG)
recombinant UMI read abundance (log10): 0

CGCGGTCCATGGACCGGTTTTCCCGGTAATCCGTATTTGCA (site CCCGGTCCTTG)
recombinant UMI read abundance (log10): 0.3

CGCGGTCCATGGACCGGTTTTCCCGGTAATCCGTATTTGCA (site CGCGGTCCTTG)
recombinant UMI read abundance (log10): 1.12

CGCGGTCCATGGACCGGTTTTCCCGGTAATCCGTATTTGCA (site CTCGGTCCTTG)
recombinant UMI read abundance (log10): 0

CGCTAGGCATGGACCGGTTTTCCCGGTAATCCGTATTTGAC (site CGCTAGGCTGT)
recombinant UMI read abundance (log10): 1.08

CGCTCATCATGGACCGGTTTTCCCGGTAATCCGTATTTGGT (site CGATCATCTAG)
recombinant UMI read abundance (log10): 0.393

CGCTCATCATGGACCGGTTTTCCCGGTAATCCGTATTTGGT (site CGCTCATCTAC)
recombinant UMI read abundance (log10): 1.17

CGGAAGACATGGACCGGTTTTCCCGGTAATCCGTATTTGCA (site AGGAAGACTTG)
recombinant UMI read abundance (log10): 0.742

CGGAAGACATGGACCGGTTTTCCCGGTAATCCGTATTTGCA (site CGGAAGACTTG)
recombinant UMI read abundance (log10): 1.73

CGGAAGACATGGACCGGTTTTCCCGGTAATCCGTATTTGCA (site GGGAAGACTTG)
recombinant UMI read abundance (log10): 0

CGGAAGACATGGACCGGTTTTCCCGGTAATCCGTATTTGCA (site TGGAAGACTTG)
recombinant UMI read abundance (log10): 0.259

CGGAATACATGGACCGGTTTTCCCGGTAATCCGTATTTGTC (site CGGAATACTGA)
recombinant UMI read abundance (log10): 1.64

CGGAATACATGGACCGGTTTTCCCGGTAATCCGTATTTGTC (site CGGAATCCTAA)
recombinant UMI read abundance (log10): 0.0129

CGGAATCCATGGACCGGTTTTCCCGGTAATCCGTATTTGGG (site CGGAATCCTAA)
recombinant UMI read abundance (log10): 0

CGGAATCCATGGACCGGTTTTCCCGGTAATCCGTATTTGGG (site CGGAATCCTCC)
recombinant UMI read abundance (log10): 0.0126

CGGAATTCATGGACCGGTTTTCCCGGTAATCCGTATTTGCT (site CGGAATCCTAA)
recombinant UMI read abundance (log10): 0.00849

CGGAATTCATGGACCGGTTTTCCCGGTAATCCGTATTTGCT (site CGGAATTCTAG)
recombinant UMI read abundance (log10): 2.45

CGGACATCATGGACCGGTTTTCCCGGTAATCCGTATTTGAT (site CGGACATCTAA)
recombinant UMI read abundance (log10): 0.359

CGGACATCATGGACCGGTTTTCCCGGTAATCCGTATTTGAT (site CGGACATCTAC)
recombinant UMI read abundance (log10): 0.605

CGGACATCATGGACCGGTTTTCCCGGTAATCCGTATTTGAT (site CGGACATCTAG)
recombinant UMI read abundance (log10): 0

CGGACATCATGGACCGGTTTTCCCGGTAATCCGTATTTGAT (site CGGACATCTAT)
recombinant UMI read abundance (log10): 1.84

CGGACATCATGGACCGGTTTTCCCGGTAATCCGTATTTGCC (site CGGACATCTAG)
recombinant UMI read abundance (log10): 0.305

CGGACATCATGGACCGGTTTTCCCGGTAATCCGTATTTGCC (site CGGACATCTCG)
recombinant UMI read abundance (log10): 0.00908

CGGACATCATGGACCGGTTTTCCCGGTAATCCGTATTTGCC (site CGGACATCTGG)
recombinant UMI read abundance (log10): 2.66

CGGACATCATGGACCGGTTTTCCCGGTAATCCGTATTTGCC (site CGGACATCTTG)
recombinant UMI read abundance (log10): 0

CGGACATCATGGACCGGTTTTCCCGGTAATCCGTATTTGCT (site AGGACATCTAG)
recombinant UMI read abundance (log10): 0.695
